Reference: US20200069644A1, “NOVEL USE OF A FORMYL PEPTIDE RECEPTOR 2/ LIPOXIN A4 RECEPTOR (FPR2/ALX) AGONIST FOR TREATMENT OF HEART FAILURE” (BRISTOL- MYERS SQUIBB COMPANY, priority 2017, published 2020)

Assays:
Assay type in all cases: in vivo
[1] = tested on: ischemia-reperfusion myocardial infarction in rats; test: Rat model of ischemia-reperfusion myocardial infarction, 6 weeks
Procedure: In a third model of myocardial infarction, transient coronary artery occlusion followed by reperfusion was carried out in rats to induce myocardial infarction and to assess salvage of myocardium within the area at risk of myocardial infarction. Treatment with orally-administered Compound 1 (0.01, 0.1, 1, and 10 mg/kg, QD) or dosing solution without compound (QD, referred to as vehicle) was initiated 48 hours following myocardial infarction. Rats subjected to thoracotomy but not infarcted were included as surgical “sham” controls. Rats were evaluated 6 weeks following myocardial infarction to assess structure/function relationships. Hearts were removed from rats for histological processing to the extent of myocardial salvage with Compound 1 treatment. The pressure-volume conductance catheter technique was used to evaluate cardiac function.
The effects of Compound 1 on left ventricle and infarct scar remodeling were evaluated in a rat model of ischemia-reperfusion myocardial infarction. Treatments were initiated 48 hr after MI and were continued for 6 weeks. MI was created by transient ligation the left anterior descending artery with a surgical suture for 1 hour followed by reperfusion. Treatments consisted of a suspension vehicle, Compound 1 at 0.01, 0.1, 1 and 10 mg/kg. At the end of 6 weeks of treatment, hearts were removed for histological evaluation of left ventricle structure and scar structure. This is a model of ischemic heart disease.
In addition, the effect of Compound 1 on cardiac function was measured by the pressure-volume conductance catheter technique to assess structure/function relationships. The structure of the infarct wall was measured histologically to determine the extent of myocardial infarction and myocardial tissue salvage. In this model, blood reperfusion to the site of ischemia is designed to salvage myocardium within the area at risk of myocardial infarction. However, in this model, there is potential for additional insult to tissue caused by reperfusion that can stimulate added myocardial necrosis. Therefore, measurement of myocardial salvage within the myocardial infarct zone is an important endpoint in this model. […] Preservation of viable myocardium was obtained at the 0.1, 1 and 10 mg/kg doses (31-41% preservation relative to vehicle, *P<0.05, **P<0.01, ***P<0.001).
A pressure-volume conductance catheter was used to measure left ventricular ejection fraction at the end of the treatment phase. The fraction of blood pumped out of the left ventricle was measured per contraction cycle (i.e., ejection fraction) and was used to assess overall cardiac function following 6 weeks of treatment. […]

[2] = tested on: DOCA-challenged cardiac fibrosis in mice
Procedure: In a second model of non-ischemic heart disease with hypertension, mice were subjected to uni-nephrectomy and challenged with deoxycorticosterone acetate (DOCA) and saline drinking water to stimulate cardiac hypertrophy and left ventricular fibrosis. Mice were administered DOCA using subcutaneously implanted pellets (50 mg). A separate group of mice were subjected to surgery via creation of subcutaneous pocket (surgical “sham” group); these mice served as control for pellet implantation surgery. Mice were treated with Compound 1 (1 mg/kg, QD) or dosing solution (QD, referred to as vehicle) 24 hours after surgery. Treatment with Compound 1 was given to mice for 3 weeks. At the end of treatment phase, hearts were removed from animals and evaluated for collagen levels/fibrosis by cross-sectional histology of the hearts.
Myocardial fibrosis was evaluated in the mouse with continuous DOCA challenge administered by subcutaneous release pellet. The model increases systemic blood pressure and tissue inflammation in target tissues such as the myocardium via agonism of the mineralocorticoid receptor by DOCA. It also involves surgical uni-nephrectomy and supplementation with saline in the drinking water to further drive disease pathology. This is a model of non-ischemic heart disease.
The effect of Compound 1 on cardiac fibrosis development in the DOCA-salt mouse model was evaluated histologically. […]

[3] = tested on: myocardial infarction in rats; test: Rat model of permanent coronary artery occlusion, 6 weeks
Procedure: In a second model of myocardial infarction, permanent coronary artery occlusion was carried out in rats using a ligature placed around the left anterior descending artery to induce myocardial infarction. Treatment with orally-administered Compound 1 (0.01, 0.1, 1, and 10 mg/kg, QD) or dosing solution without compound (QD, referred to as vehicle) was initiated 48 hours following myocardial infarction. Rats subjected to thoracotomy but not infarcted were included as surgical “sham” controls. Rats were evaluated 6 weeks following myocardial infarction to assess structure/function relationships. Hearts were removed from rats for histological processing to measure infarct wall thickness and collagen composition. Echocardiography was carried out to evaluate cardiac function.
The effects of Compound 1 on left ventricle and infarct scar remodeling were evaluated in a rat model of permanent coronary artery occlusion. […] In addition, the effect of Compound 1 on cardiac function was measured by echocardiography to assess structure/function relationships. The structure of the myocardial wall was measured histologically. […]
Echocardiography was used to measure cardiac function at the end of the treatment phase. The fraction of blood pumped out of the left ventricle per contraction cycle (i.e., ejection fraction) was determined using M-mode echocardiography. […]

COc1cc(F)c([C@@H]2CNC(=O)[C@H]2NC(=O)Nc2ccccc2)c(F)c1 [Compound 1, 1-((3S,4R)-4-(2,6-difluoro-4-methoxyphenyl)-2-oxopyrrolidin-3-yl)-3-phenylurea] was tested, and the “improvement in left ventricular ejection fraction vs. vehicle (pressure-volume conductance catheter)” value ([1]; 0.01 mg/kg PO QD, P<0.05) was 37%, the “improvement in left ventricular ejection fraction vs. vehicle (pressure-volume conductance catheter)” value ([1]; 1 mg/kg PO QD, P<0.01) was 51% and the “preservation of viable myocardium across infarct wall relative to vehicle” value ([1]; 0.1, 1 and 10 mg/kg PO QD) was 31-41%. For the same compound, the “left ventricular ejection fraction vs. vehicle (pressure-volume conductance catheter)” value ([1]; other doses (0.1 and 10 mg/kg)) was “trend towards improved ejection fraction”, the “reduction of left ventricular fibrosis vs. vehicle treatment group” value ([2]; 1 mg/kg QD for 3 weeks, started 24 h after surgery, P<0.01) was 50% and the “tolerability during in-life phase” value ([2]; mouse, in vivo, 1 mg/kg) was “well tolerated”. For the same compound, the contralateral wall thickness ([3]; 0.01-10 mg/kg, between treatment groups or sham) was “No changes” and the “transmural infarct wall thickness, increase relative to vehicle” value ([3]; 10 mg/kg PO QD, started 48 h after MI, P<0.01) was 96%.
